Experiments:
giant foxtail = experiment: Test B pre-/postemergence herbicide test; type: in vivo, Setaria faberi; details: for Foxtail, Giant plant response rating: postemergence
Summary of the method: (§1)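 Evaluation is visual, comparing treated with control plants on a scale where 0 means no effect and 100 means full control. Treatments were preemergence, or postemergence on seedlings 2–18 cm tall, and held 13–15 days in the greenhouse.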

ducksalad [1] = experiment: Test C flooded paddy test; type: in vivo, Heteranthera limosa
ducksalad [2] = experiment: Test B flooded paddy test; type: in vivo, Heteranthera limosa; details: 1000 g ai/ha, scale 0 to 100 (0 no effect, 100 complete control)
Summary of the method: (§2)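 After treating 2-leaf paddy plants or 2–18 cm postemergence plants (1 to 4 leaves) with formulated chemical, researchers kept them in a greenhouse for 13–15 days. Effects were judged visually versus controls: 0 indicates none, 100 total control.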

cocklebur = experiment: Test B pre-/postemergence herbicide test; type: in vivo, Xanthium strumarium; details: for Cocklebur plant response rating: postemergence, scale 0 (no effect) to 100 (complete control)
Summary of the method: (§3)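 Flooded paddy rice and barnyardgrass were treated at the 2-leaf stage; upland plantings received compound either on sown seed or on 1- to 4-leaf seedlings. All were kept 13–15 days in a greenhouse and scored visually, 0–100, relative to untreated plants.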

large crabgrass = experiment: Test B pre-/postemergence herbicide test; type: in vivo, Digitaria sanguinalis; details: for Crabgrass, Large plant response rating: postemergence
Summary of the method: as §1

barnyardgrass [3] = experiment: Test C flooded paddy test; type: in vivo, Echinochloa crus-galli
Summary of the method: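 After a postemergence application at 1 to 4 leaves (plants 2–18 cm high), or at 2 leaves for barnyardgrass in flooded paddy, plants stayed in the greenhouse for 12 to 14 days. Damage was then judged visually relative to control plants, with 100 indicating complete control.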

wheat = experiment: Test B postemergence herbicide test; type: in vivo, Triticum aestivum; design: key to Wheat plant response rating: 0 = no effect, 100 = complete control; details: postemergence
Summary of the method: (§4)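 Treated at 2-leaf (paddy) or 1–4-leaf, 2–18 cm (postemergence); greenhouse 13–15 d; visual score vs control, 0 none to 100 complete control; dash = not tested.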

lambsquarters = experiment: Test B pre-/postemergence herbicide test; type: in vivo, Chenopodium album; details: for Lambsquarters plant response rating: postemergence
Summary of the method: as §1

rice [4] = experiment: Test B flooded paddy test; type: in vivo, Oryza sativa; details: 1000 g ai/ha, scale 0 to 100 (0 no effect, 100 complete control)
Summary of the method: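 Each value is a visual 0–100 response rating taken against controls 13 to 15 days after treatment in the greenhouse. Plants received formulated chemical postemergence at the 1- to 4-leaf stage or, in flooded paddy, at the 2-leaf stage.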

barnyardgrass [5] = experiment: Test B pre-/postemergence herbicide test; type: in vivo, Echinochloa crus-galli; details: for Barnyardgrass plant response rating: postemergence, scale 0 (no effect) to 100 (complete control)
Summary of the method: as §3

blackgrass = experiment: Test B postemergence herbicide test; type: in vivo, Alopecurus myosuroides; details: postemergence, visual rating, scale 0 (no effect) to 100 (complete control)
Summary of the method: as §2

rice [6] = experiment: Test C flooded paddy test; type: in vivo, Oryza sativa
Summary of the method: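 Postemergence sprays applied to plants 2 to 18 cm tall (1- to 4-leaf stage); paddy species grown to 2-leaf stage under flooding. After 12 to 14 days in greenhouse, visual rating versus untreated controls on 0–100 scale (0 no effect, 100 complete control).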

pigweed = experiment: Test B pre-/postemergence herbicide test; type: in vivo, Amaranthus retroflexus; details: for Pigweed plant response rating: postemergence
Summary of the method: as §1

wild oat = experiment: Test B postemergence herbicide test; type: in vivo, Avena fatua; details: postemergence
Summary of the method: as §4

morningglory = experiment: Test B pre-/postemergence herbicide test; type: in vivo, Ipomoea coccinea; details: for Morningglory plant response rating: postemergence
Summary of the method: as §3

[7] = test system: smallflower umbrella sedge; experiment: Test C flooded paddy test; type: in vivo, Cyperus difformis
velvetleaf = experiment: Test B pre-/postemergence herbicide test; type: in vivo, Abutilon theophrasti; details: for Velvetleaf plant response rating: postemergence
Summary of the method: as §1

corn = experiment: Test B pre-/postemergence herbicide test; type: in vivo, Zea mays; details: for Corn plant response rating: postemergence
Summary of the method: as §1

Surinam grass = experiment: Test B pre-/postemergence herbicide test; type: in vivo, Urochloa decumbens; details: for Surinam Grass plant response rating: postemergence
Summary of the method: as §1

barnyardgrass [8] = experiment: Test B flooded paddy test; type: in vivo, Echinochloa crus-galli; details: 1000 g ai/ha, scale 0 to 100 (0 no effect, 100 complete control)
Summary of the method: as §2

rice [9] = experiment: Test B pre-/postemergence herbicide test; type: in vivo, Oryza sativa; details: 0 = no effect, 100 = complete control, preemergence
Summary of the method: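 Plants compared with untreated controls 13–15 days post-treatment and given a visual 0–100 injury score. Applications: preemergence to seeds; postemergence at 1- to 4-leaf (2–18 cm); paddy species flooded, 2-leaf stage. Vehicle non-phytotoxic, surfactant included.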

[10] = test system: small flower umbrella sedge; experiment: Test B flooded paddy test; type: in vivo, Cyperus difformis; details: 1000 g ai/ha, scale 0 to 100 (0 no effect, 100 complete control)
Summary of the method: as §2

[11] = 125 g ai/ha, 0 = no effect, 100 = complete control, preemergence
[12] = 500 g ai/ha, visual rating, 0 = no effect, 100 = complete control, preemergence
[13] = 125 g ai/ha, visual rating, scale 0 (no effect) to 100 (complete control)
[14] = 500 g ai/ha, scale 0 to 100, 0 is no effect, 100 is complete control
[15] = 62 g ai/ha, scale 0 to 100 (0 no effect, 100 complete control)
[16] = 125 g ai/ha, scale 0 to 100 (0 no effect, 100 complete control)
[17] = 250 g ai/ha, scale of 0 to 100, 0 is no effect, 100 is complete control
[18] = 500 g ai/ha, visual rating after 12 to 14 days, scale 0 to 100 (0 no effect, 100 complete control)

For `CCn1nc(C(C)(C)C)cc1C(=O)Nc1cccc(C(=O)N2CCCC2)n1` [Compound 245], the “Foxtail, Giant plant response rating (0 to 100 scale)” value (giant foxtail; [11]) was 60, the “Plant response rating, Foxtail, Giant” value (giant foxtail; [12]) was 90 and the “Foxtail, Giant plant response rating” value (giant foxtail; [13]) was 30. For the same compound, the “Foxtail, Giant plant response rating” value (giant foxtail; [14]) was 60, the “Ducksalad plant response rating” value (ducksalad [1]; [15]) was 60 and the “Ducksalad plant response rating” value (ducksalad [1]; [16]) was 75. For the same compound, the “Ducksalad plant response rating” value (ducksalad [1]; [17]) was 75, the “Plant response rating, Ducksalad” value (ducksalad [1]; [18]) was 75 and the “Ducksalad plant response rating” value (ducksalad [2]) was 80. The “Cocklebur plant response rating (0 to 100 scale)” value (cocklebur; [11]) was 0, the “Plant response rating, Cocklebur” value (cocklebur; [12]) was 0 and the “Cocklebur plant response rating” value (cocklebur; 125 g ai/ha, visual rating) was 40. For the same compound, the “Cocklebur plant response rating” value (cocklebur; 500 g ai/ha, visual rating) was 80, the “Crabgrass, Large plant response rating (0 to 100 scale)” value (large crabgrass; [11]) was 60 and the “Plant response rating, Crabgrass, Large” value (large crabgrass; [12]) was 100. The “Crabgrass, Large plant response rating” value (large crabgrass; [13]) was 10, the “Crabgrass, Large plant response rating” value (large crabgrass; [14]) was 50 and the “Barnyardgrass plant response rating” value (barnyardgrass [3]; [15]) was 0. For the same compound, the “Barnyardgrass plant response rating” value (barnyardgrass [3]; [16]) was 35, the “Barnyardgrass plant response rating” value (barnyardgrass [3]; [17]) was 45 and the “Plant response rating, Barnyardgrass” value (barnyardgrass [3]; [18]) was 70. For the same compound, the “Wheat plant response rating” value (wheat; [13]) was 10, the “Wheat plant response rating” value (wheat; [14]) was 20 and the “Lambsquarters plant response rating (0 to 100 scale)” value (lambsquarters; [11]) was 90. The “Plant response rating, Lambsquarters” value (lambsquarters; [12]) was 100, the “Lambsquarters plant response rating” value (lambsquarters; [13]) was 80 and the “Lambsquarters plant response rating” value (lambsquarters; [14]) was 90. The “Rice plant response rating” value (rice [4]) was 80, the “Barnyardgrass plant response rating (0 to 100 scale)” value (barnyardgrass [5]; [11]) was 70 and the “Plant response rating, Barnyardgrass” value (barnyardgrass [5]; [12]) was 100. For the same compound, the “Barnyardgrass plant response rating” value (barnyardgrass [5]; 125 g ai/ha, visual rating) was 40, the “Barnyardgrass plant response rating” value (barnyardgrass [5]; 500 g ai/ha, visual rating) was 70 and the “Blackgrass plant response rating” value (blackgrass; 125 g ai/ha) was 0. For the same compound, the “Blackgrass plant response rating” value (blackgrass; 500 g ai/ha) was 0, the “Rice plant response rating” value (rice [6]; [15]) was 25 and the “Rice plant response rating” value (rice [6]; [16]) was 65. For the same compound, the “Rice plant response rating” value (rice [6]; [17]) was 70, the “Plant response rating, Rice” value (rice [6]; [18]) was 70 and the “Pigweed plant response rating (0 to 100 scale)” value (pigweed; [11]) was 100. For the same compound, the “Plant response rating, Pigweed” value (pigweed; [12]) was 100, the “Pigweed plant response rating” value (pigweed; [13]) was 60 and the “Pigweed plant response rating” value (pigweed; [14]) was 80. The “Oat, Wild plant response rating” value (wild oat; [13]) was 20, the “Oat, Wild plant response rating” value (wild oat; [14]) was 30 and the “Morningglory plant response rating (0 to 100 scale)” value (morningglory; [11]) was 10. The “Plant response rating, Morningglory” value (morningglory; [12]) was 20, the “Morningglory plant response rating” value (morningglory; [13]) was 10 and the “Morningglory plant response rating” value (morningglory; [14]) was 60. For the same compound, the “Sedge, Umbrella plant response rating” value [7, 15] was 55, the “Sedge, Umbrella plant response rating” value [7, 16] was 70 and the “Sedge, Umbrella plant response rating” value [7, 17] was 70. For the same compound, the “Plant response rating, Sedge, Umbrella” value [7, 18] was 70, the “Velvetleaf plant response rating (0 to 100 scale)” value (velvetleaf; [11]) was 40 and the “Plant response rating, Velvetleaf” value (velvetleaf; [12]) was 90. The “Velvetleaf plant response rating” value (velvetleaf; [13]) was 70, the “Velvetleaf plant response rating” value (velvetleaf; [14]) was 80 and the “Corn plant response rating (0 to 100 scale)” value (corn; [11]) was 0. The “Plant response rating, Corn” value (corn; [12]) was 10, the “Corn plant response rating” value (corn; [13]) was 10 and the “Corn plant response rating” value (corn; [14]) was 30. The “Surinam Grass plant response rating (0 to 100 scale)” value (Surinam grass; [11]) was 40, the “Plant response rating, Surinam Grass” value (Surinam grass; [12]) was 80 and the “Surinam Grass plant response rating” value (Surinam grass; [13]) was 30. For the same compound, the “Surinam Grass plant response rating” value (Surinam grass; [14]) was 60, the “Barnyardgrass plant response rating” value (barnyardgrass [8]) was 90 and the “Rice plant response rating (0 to 100 scale)” value (rice [9]; 125 g ai/ha) was 20. For the same compound, the “Plant response rating, Rice” value (rice [9]; 500 g ai/ha, visual rating) was 50 and the “Sedge, Umbrella plant response rating” value [10] was 50.
